{
  "source": "patent US9567318B2",
  "about": "“Substituted pyrimidine compounds and uses thereof” (Memorial Sloan-Kettering Cancer Center, priority 2009, dated 2017)",
  "key": {"HSF-1 in SKBr3 cells": {"system": "HSF-1 in SKBr3 cells", "assay": "Native gel electrophoresis, HSF-1 activation", "format": "cell-based, human", "details": "3 h", "method": "(§1) FIG. 6. YK5 inhibits core biochemical functions of Hsp70s and disrupts the Hsp90/Hsp70 interaction. a) Refolding of denatured luciferase by Hsc70 and DJA2 at 30° C. was measured for the indicated times in the presence of YK5 (100 μM) or vehicle (left), or at 60 min in the presence of indicated concentrations of YK5 (right). b) Hsc70 ATPase rates were measured for reactions at 30° C. with the indicated combinations of Hsc70 and co-chaperones in the presence of vehicle (DMSO) or YK5 (100 μM). ADP production was monitored by thin layer chromatography separation of radiolabeled ADP from ATP and phosphorimaging analysis (lower). The data are consistent with those obtained from multiple repeat experiments (n≧2). c,d) SKBr3 cells were treated for 24 h with vehicle or indicated concentrations of YK5 (c) or for the indicated times with YK5 (10 μM) (d). Proteins isolated with anti-Hsp90 and Hsp70s antibodies (IP: Hsp90 or Hsp70), or present in the cell extract (Lysate) were analyzed by WB. Specificity of binding was tested with a control IgG. HC=heavy chain; DJA1 and Hdj1=Hsp40 isoforms. e) Unlike Hsp90 inhibitors, YK5 fails to activate HSF-1. […] Proteins were applied to a native gel and analyzed by immunoblotting. The data are consistent with those obtained from multiple repeat experiments (n≧3). f) YK5 was tested in the scanMAX screen (Ambit) against 359 kinases. […]"}, "359 kinases": {"system": "359 kinases", "assay": "Kinase screen (scanMAX, Ambit)", "format": "binding", "method": "as §1, with “WB.” for “WB. Specificity of binding was tested with a control IgG. HC=heavy chain; DJA1 and Hdj1=Hsp40 isoforms. e) Unlike Hsp90 inhibitors, YK5 fails to activate HSF-1.”, “immunoblotting.” for “immunoblotting. The data are consistent with those obtained from multiple repeat experiments (n≧3). f) YK5 was tested in the scanMAX screen (Ambit) against 359 kinases.”\nKinase Screen. […] The kinase concentration in the eluates was measured by qPCR. KINOMEscan's selectivity score (S) is a quantitative measure of compound selectivity. It is calculated by dividing the number of kinases that bind to the compound by the total number of distinct kinases tested, excluding mutant variants. […]"}, "Human Hsc70": {"molecular_target": "T1, Human Hsc70 (Homo sapiens, UniProt P11142)", "T1 construct": "made in house", "T1 sequence (P11142 whole entry)": "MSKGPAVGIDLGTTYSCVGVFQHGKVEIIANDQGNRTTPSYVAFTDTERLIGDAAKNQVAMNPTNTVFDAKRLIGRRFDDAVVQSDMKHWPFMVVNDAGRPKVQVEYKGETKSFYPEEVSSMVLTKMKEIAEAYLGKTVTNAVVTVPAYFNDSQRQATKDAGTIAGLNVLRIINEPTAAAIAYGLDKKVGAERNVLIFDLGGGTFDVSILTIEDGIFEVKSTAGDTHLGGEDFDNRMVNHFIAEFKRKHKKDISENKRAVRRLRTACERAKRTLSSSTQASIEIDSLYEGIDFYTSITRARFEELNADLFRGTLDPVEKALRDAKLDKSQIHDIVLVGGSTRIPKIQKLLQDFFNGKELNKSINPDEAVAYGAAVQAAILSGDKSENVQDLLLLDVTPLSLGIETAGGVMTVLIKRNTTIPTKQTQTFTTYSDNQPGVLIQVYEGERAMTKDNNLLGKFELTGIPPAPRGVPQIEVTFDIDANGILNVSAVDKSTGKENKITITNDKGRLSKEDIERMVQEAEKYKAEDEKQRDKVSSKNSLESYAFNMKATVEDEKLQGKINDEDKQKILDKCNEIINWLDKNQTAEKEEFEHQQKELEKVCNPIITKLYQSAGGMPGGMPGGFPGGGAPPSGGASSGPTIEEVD", "assay": "Hsc70 ATPase activity", "format": "biochemical", "details": "100 μM, Hsc70 with co-chaperones, 30° C.", "method": "FIG. 6. YK5 inhibits core biochemical functions of Hsp70s and disrupts the Hsp90/Hsp70 interaction. a) Refolding of denatured luciferase by Hsc70 and DJA2 at 30° C. was measured for the indicated times in the presence of YK5 (100 μM) or vehicle (left), or at 60 min in the presence of indicated concentrations of YK5 (right). b) Hsc70 ATPase rates were measured for reactions at 30° C. with the indicated combinations of Hsc70 and co-chaperones in the presence of vehicle (DMSO) or YK5 (100 μM). ADP production was monitored by thin layer chromatography separation of radiolabeled ADP from ATP and phosphorimaging analysis (lower). […] Proteins isolated with anti-Hsp90 and Hsp70s antibodies (IP: Hsp90 or Hsp70), or present in the cell extract (Lysate) were analyzed by WB. […] Proteins were applied to a native gel and analyzed by immunoblotting. […]\nHsc70 ATPase Activity and Luciferase Refolding. Human Hsc70, DJA1/DNAJA1, DJA2/DNAJA2 and Hsp110/Hsp105/HSPH1 were purified and analyzed. […] Samples at time points were terminated with 37.5 mM EDTA and analyzed by thin layer chromatography on polyethylene-imine cellulose (Mallinckrodt Baker) developed in 0.5 M LiCl and 0.5 M formic acid. The ADP produced was determined by image phosphor quantitation and the linear enzymatic rates (Vmax) were calculated by regression analysis. […]"}},
  "data": [
    {"compound": "C=CC(=O)Nc1cc(N)nc(Sc2c(OC)nc(N3CCN(C)CC3)nc2OC)n1", "note": "[YK5, N-(6-amino-2-(4,6-dimethoxy-2-(4-methylpiperazin-1-yl)pyrimidin-5-ylthio)pyrimidin-4-yl)acrylamide]", "values": [
      {"measurement": "HSF-1 activation", "setting": "HSF-1 in SKBr3 cells", "value": "no effect"},
      {"measurement": "activity against 359 kinases", "setting": "359 kinases; 10 μM", "value": "inert"},
      {"measurement": "c-Met in the kinase screen", "setting": "359 kinases; TREEspot interaction map", "value": "potential low affinity kinase hit"},
      {"measurement": "stimulated ATPase rate of Hsc70", "setting": "Human Hsc70", "value": "partially inhibited the stimulated ATPase rate of Hsc70"}
    ]}
  ]
}
